Read-outs that look alike come from different tables or passages of the source.
Experiments:
[1] = target: ROCK1 (Homo sapiens (Human), UniProt Q13464); experiment: Z-lyte FRET assay to measure kinase inhibition, ROCK1; format: biochemical; conditions: for inhibition at 50 µM: read-out: ROCK1 % inhibition @ 50 μM, 50 μM compound; for inhibition at 100 µM: read-out: ROCK1 % inhibition @ 100 μM, 100 μM compound
[2] = target: ROCK2 (Homo sapiens (Human), UniProt O75116); experiment: Z-lyte FRET assay to measure kinase inhibition, ROCK2; format: biochemical
Chain of ROCK2 (O75116 whole entry, species assumed): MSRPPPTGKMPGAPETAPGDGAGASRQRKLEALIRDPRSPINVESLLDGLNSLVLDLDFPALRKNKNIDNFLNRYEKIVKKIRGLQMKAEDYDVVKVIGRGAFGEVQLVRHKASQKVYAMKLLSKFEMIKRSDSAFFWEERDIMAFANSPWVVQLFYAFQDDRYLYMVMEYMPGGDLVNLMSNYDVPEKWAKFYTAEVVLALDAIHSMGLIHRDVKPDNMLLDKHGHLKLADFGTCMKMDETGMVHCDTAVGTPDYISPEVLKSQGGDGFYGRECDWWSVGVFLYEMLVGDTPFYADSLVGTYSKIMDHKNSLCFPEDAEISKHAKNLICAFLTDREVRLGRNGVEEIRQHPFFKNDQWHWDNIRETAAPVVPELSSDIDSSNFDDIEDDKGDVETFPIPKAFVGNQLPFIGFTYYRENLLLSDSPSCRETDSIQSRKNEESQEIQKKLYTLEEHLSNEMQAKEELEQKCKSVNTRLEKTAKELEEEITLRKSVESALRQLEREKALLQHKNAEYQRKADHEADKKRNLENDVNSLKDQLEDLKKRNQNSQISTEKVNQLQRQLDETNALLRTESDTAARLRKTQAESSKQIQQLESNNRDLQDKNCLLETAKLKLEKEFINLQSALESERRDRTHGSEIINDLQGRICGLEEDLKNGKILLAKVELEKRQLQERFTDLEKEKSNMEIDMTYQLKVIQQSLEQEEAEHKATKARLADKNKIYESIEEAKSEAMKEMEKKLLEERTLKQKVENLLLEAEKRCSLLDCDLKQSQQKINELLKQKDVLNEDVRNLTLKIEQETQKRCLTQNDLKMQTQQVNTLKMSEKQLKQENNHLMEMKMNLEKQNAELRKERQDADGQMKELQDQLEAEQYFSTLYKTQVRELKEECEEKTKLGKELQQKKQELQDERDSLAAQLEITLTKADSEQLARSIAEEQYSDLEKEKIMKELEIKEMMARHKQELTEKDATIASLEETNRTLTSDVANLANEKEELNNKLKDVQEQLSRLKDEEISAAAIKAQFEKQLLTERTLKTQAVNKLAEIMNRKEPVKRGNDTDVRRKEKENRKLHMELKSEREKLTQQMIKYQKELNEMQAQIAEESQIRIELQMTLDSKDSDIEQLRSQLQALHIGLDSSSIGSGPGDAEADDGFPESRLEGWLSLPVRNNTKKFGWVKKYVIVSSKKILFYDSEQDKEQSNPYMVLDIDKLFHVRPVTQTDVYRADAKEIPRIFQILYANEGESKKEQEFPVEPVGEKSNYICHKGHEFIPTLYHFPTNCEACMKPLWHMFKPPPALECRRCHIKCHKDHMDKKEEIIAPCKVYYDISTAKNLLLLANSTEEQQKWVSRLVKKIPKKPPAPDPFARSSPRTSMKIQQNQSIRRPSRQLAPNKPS

Chain of ROCK1 (Q13464 whole entry): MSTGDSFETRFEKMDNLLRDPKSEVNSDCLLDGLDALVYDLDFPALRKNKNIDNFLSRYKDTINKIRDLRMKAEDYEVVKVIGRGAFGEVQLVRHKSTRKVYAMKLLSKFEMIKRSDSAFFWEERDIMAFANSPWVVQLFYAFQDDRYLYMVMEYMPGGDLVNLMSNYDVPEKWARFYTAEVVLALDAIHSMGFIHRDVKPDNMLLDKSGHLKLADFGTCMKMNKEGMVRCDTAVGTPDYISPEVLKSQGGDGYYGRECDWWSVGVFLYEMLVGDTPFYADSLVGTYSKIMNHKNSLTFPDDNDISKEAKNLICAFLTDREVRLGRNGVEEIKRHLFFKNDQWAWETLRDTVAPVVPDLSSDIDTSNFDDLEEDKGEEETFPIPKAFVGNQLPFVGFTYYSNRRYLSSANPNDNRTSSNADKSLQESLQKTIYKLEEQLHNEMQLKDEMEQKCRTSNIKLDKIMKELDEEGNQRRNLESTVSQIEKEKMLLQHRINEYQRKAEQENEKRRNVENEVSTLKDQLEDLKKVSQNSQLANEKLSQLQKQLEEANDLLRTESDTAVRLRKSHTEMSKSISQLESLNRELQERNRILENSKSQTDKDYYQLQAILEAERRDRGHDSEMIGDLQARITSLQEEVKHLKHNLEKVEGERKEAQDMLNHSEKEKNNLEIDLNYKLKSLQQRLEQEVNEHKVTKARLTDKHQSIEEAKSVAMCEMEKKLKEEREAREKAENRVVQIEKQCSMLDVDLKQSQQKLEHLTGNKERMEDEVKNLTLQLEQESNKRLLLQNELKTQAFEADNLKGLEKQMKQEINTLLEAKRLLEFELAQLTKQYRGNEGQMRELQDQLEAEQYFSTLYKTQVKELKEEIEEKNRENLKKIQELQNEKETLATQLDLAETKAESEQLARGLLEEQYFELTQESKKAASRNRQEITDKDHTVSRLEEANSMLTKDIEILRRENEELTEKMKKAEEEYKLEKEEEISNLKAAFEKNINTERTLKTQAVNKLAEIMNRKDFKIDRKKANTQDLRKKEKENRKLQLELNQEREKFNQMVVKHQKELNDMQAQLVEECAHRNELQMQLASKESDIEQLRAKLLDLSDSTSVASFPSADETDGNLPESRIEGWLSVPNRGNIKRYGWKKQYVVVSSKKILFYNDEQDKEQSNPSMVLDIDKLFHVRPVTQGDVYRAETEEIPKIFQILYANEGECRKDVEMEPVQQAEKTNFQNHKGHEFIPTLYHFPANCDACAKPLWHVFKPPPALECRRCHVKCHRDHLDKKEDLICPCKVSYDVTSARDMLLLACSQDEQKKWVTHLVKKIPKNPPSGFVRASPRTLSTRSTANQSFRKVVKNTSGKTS

Row | Compound | inhibition at 50 µM [1] [%] | IC50 ([1]; read-out: ROCK1 IC50) [µM] | further results
1 | Nc1nccc(Oc2ccc(S(N)(=O)=O)cc2)n1 | -0.3 ± 1 | – | –
2 | COc1cccc(CNC(=O)c2cccc3c2ccn3-c2ccnc(NC(C)=O)n2)c1 | – | 15.4 ± 4.02 | inhibition at 100 µM [1]: 80%
3 | CC1Cc2cc([N+](=O)[O-])ccc2N1c1ccnc(N)n1 (stereo not shown) | 98 ± 2 | 0.5 ± 0.1 | IC50 [2]: 0.4 ± 0.1 µM
4 | CC1Cc2cc(Cl)ccc2N1c1ccnc(N)n1 (stereo not shown) | 87 ± 10 | 1.2 ± 0.1 | IC50 [2]: 0.5 ± 0.03 µM
5 | COc1cccc(CNC(=O)c2cccc3c2ccn3-c2cc(N)nc(N)n2)c1 | 1.26 ± 0.79 | – | –
6 | Nc1nccc(-n2ccc3c(C(=O)NCc4ccccc4-c4ccccc4)cccc32)n1 | – | – | inhibition at 100 µM [1]: 7%
7 | Nc1nccc(-n2ccc3c(C(=O)NCc4cccc(Cl)c4)cccc32)n1 | 86 ± 4 | 6.8 ± 3 | IC50 [2]: 0.72 ± 0.13 µM
8 | Nc1nccc(N2CCc3ccccc32)n1 | 85 ± 4 | 6.6 ± 0.5 | IC50 [2]: 3.4 ± 0.3 µM
9 | Nc1nccc(N2CCc3ccccc3C2)n1 | 6 ± 1 | – | –
10 | CC(=O)N(C)c1cccc(CNC(=O)c2cccc3c2ccn3-c2ccnc(N)n2)c1 | – | 40.3 ± 11 | inhibition at 100 µM [1]: 47%
11 | Nc1nc(Nc2ccc(S(N)(=O)=O)cc2)c2[nH]cnc2n1 | 9 ± 2 | – | –
12 | COc1cccc([C@H](C)NC(=O)c2cccc3c2ccn3-c2ccnc(N)n2)c1 | – | 1.38 ± 0.63 | inhibition at 100 µM [1]: 97%
13 | Nc1nccc(Nc2ccc(S(=O)(=O)Nc3nccs3)cc2)n1 | 21 ± 10 | – | –
14 | NC(=O)c1ccc(Oc2ccnc(N)n2)cc1 | 2 ± 1 | – | –
15 | Nc1nccc(N2CCc3cc([N+](=O)[O-])ccc32)n1 | 24 ± 2 | – | –
16 | Cc1cc(Nc2cccc(S(N)(=O)=O)c2)nc(N)n1 | 0.8 ± 1.2 | – | –
17 | COc1ccc(CNC(=O)c2cccc3c2ccn3-c2ccnc(N)n2)cc1 | 19.4 ± 13.7 | – | –

Row | Compound | inhibition at 50 µM [1] [%] | IC50 ([1]; read-out: ROCK1 IC50) [µM] | further results
18 | NS(=O)(=O)c1ccc(Nc2ncnc3nc[nH]c23)cc1 | 54 ± 4 | 42.7 ± 0.9 | –
19 | CCOc1cccc(CNC(=O)c2cccc3c2ccn3-c2ccnc(N)n2)c1 | – | 3.37 ± 0.53 | inhibition at 100 µM [1]: 61%
20 | CS(=O)(=O)Nc1cccc(CNC(=O)c2cccc3c2ccn3-c2ccnc(N)n2)c1 | – | 3.26 ± 0.57 | inhibition at 100 µM [1]: 100%
21 | Nc1nccc(Nc2ccccc2Cl)n1 | – | – | inhibition at 100 µM [1]: 39%
22 | Nc1nccc(-n2ccc3c(C(=O)NCc4ccc(Cl)cc4)cccc32)n1 | 31 ± 10 | – | –
23 | COc1cccc([C@@H](C)NC(=O)c2cccc3c2ccn3-c2ccnc(N)n2)c1 | – | 0.213 ± 0.025 | inhibition at 100 µM [1]: 92%
24 | Clc1nccc(N2CCc3ccccc32)n1 | -3 ± 1 | – | –
25 | Nc1nccc(Nc2ccc(S(=O)(=O)N3CCN(c4cccc(C(F)(F)F)c4)CC3)cc2)n1 | -0.3 ± 0.7 | – | –
26 | CC(=O)N1CCc2ccc(Nc3ccnc(N)n3)cc21 | 10 ± 12 | – | –
27 | Nc1nccc(-n2ccc3c(C(=O)NCc4cccc(N5CCCC5=O)c4)cccc32)n1 | – | 8.31 ± 7.39 | inhibition at 100 µM [1]: 99%
28 | COc1cccc(CN(C)C(=O)c2cccc3c2ccn3-c2ccnc(N)n2)c1 | – | 15.2 ± 3.74 | inhibition at 100 µM [1]: 89%
29 | Nc1nccc(N2c3ccccc3CC2C(=O)O)n1 (stereo not shown) | 6 ± 0.4 | – | –
30 | COCCOc1cccc(CNC(=O)c2cccc3c2ccn3-c2ccnc(N)n2)c1 | – | 9.31 ± 8.68 | inhibition at 100 µM [1]: 86%
31 | Nc1nccc(Nc2ccc(S(N)(=O)=O)cc2)n1 [NSC-135784, reference compound] | – | – | IC50 ([1]; NCI sample, screening hit, weak inhibitor, read-out: IC50 (screen of NCI Diversity set, NCI sample)): 92 µM
32 | CC(=O)NS(=O)(=O)c1ccc(Nc2ccnc(N)n2)cc1 | 9 ± 1.5 | – | –
33 | CC(=O)Nc1cccc(CNC(=O)c2cccc3c2ccn3-c2ccnc(N)n2)c1 | – | 1.39 ± 0.26 | inhibition at 100 µM [1]: 117%
34 | Nc1nccc(Nc2cc(S(N)(=O)=O)ccc2O)n1 | 36 ± 5 | – | –

Now from value to compound, other results behind:

Row | inhibition at 50 µM [1] [%] | IC50 ([1]; read-out: ROCK1 IC50) [µM] | Compound | further results
35 | 63 ± 5 | 30.2 ± 2.5 | COc1cccc(Nc2ccnc(N)n2)c1 | IC50 [2]: 42.5 ± 6.7 µM
36 | 89 ± 2 | 3.9 ± 0.3 | Nc1nccc(Nc2ccc([N+](=O)[O-])cc2)n1 | IC50 [2]: 3.7 ± 0.8 µM
37 | 76 ± 2 | 39 ± 6.9 | Nc1nccc(-n2ccc3cc(OCc4ccccc4)ccc32)n1 | IC50 [2]: 16.3 ± 5.5 µM
38 | – | 1.77 ± 0.24 | CC[C@@H](NC(=O)c1cccc2c1ccn2-c1ccnc(N)n1)c1ccccc1 | inhibition at 100 µM [1]: 122%
39 | 2 ± 1 | – | COc1cc(NC(C)=O)ccc1Nc1ccnc(N)n1 | –
40 | 21 ± 14 | – | Nc1nccc(-n2ccc3cc(OCCc4ccccc4)ccc32)n1 | –
41 | 71 ± 2 | 1.9 ± 0.42 | Nc1nccc(-n2ccc3c(OCc4ccc(Cl)cc4)cccc32)n1 | IC50 [2]: 0.46 ± 0.08 µM
42 | 39.2 ± 4.19 | – | Nc1nccc(-n2ccc3c(C(=O)NCc4ccccc4Cl)cccc32)n1 | –
43 | 91 ± 1 | 2 ± 0.5 | Nc1nccc(-n2ccc3c(C(=O)NCCc4ccccc4)cccc32)n1 | IC50 [2]: 0.5 ± 0.1 µM
44 | 2 ± 1 | – | Nc1nccc(Nc2ccc(CC(=O)O)cc2)n1 | –
45 | 22 ± 4 | – | Nc1nccc(Nc2ccccc2OCc2ccccc2)n1 | –
46 | 46 ± 4 | > 100 | Nc1nccc(Nc2ccc(S(=O)(=O)Nc3ccccc3)cc2)n1 | –
47 | 10 ± 2 | – | Nc1nccc(-n2ccc3c(OCc4cccc(Cl)c4F)cccc32)n1 | –
48 | 30 ± 1 | – | Nc1nccc(Nc2ccc(S(=O)(=O)NCc3ccccc3)cc2)n1 | –
49 | -5 ± 0.5 | – | Nc1nccc(-n2ccc3cccc(OCc4ccccc4)c32)n1 | –
50 | 18 ± 1 | – | Nc1nccc(N2c3ccccc3CC2c2ccccc2)n1 (stereo not shown) | –
51 | 36 ± 6 | – | CCc1ccc(Nc2ccnc(N)n2)cc1 | –
52 | 9 ± 1 | – | Nc1nccc(-n2ccc3c(C(=O)Nc4ccccc4)cccc32)n1 | –
53 | – | 33.4 ± 8.52 | COc1cccc(CNS(=O)(=O)c2cccc(Nc3ccnc(N)n3)c2)c1 | inhibition at 100 µM [1]: 70%

Row | inhibition at 50 µM [1] [%] | IC50 ([1]; read-out: ROCK1 IC50) [µM] | Compound | further results
54 | -1 ± 2 | – | c1ccc(Nc2nccc(N3CCc4ccccc43)n2)cc1 | –
55 | 33 ± 4 | – | c1ccc(COc2cccc3c2CCN3c2ncnc3[nH]ccc23)cc1 | –
56 | 31 ± 4 | – | CCOc1ccc(Nc2ccnc(N)n2)cc1 | –
57 | 42 ± 6 | – | CC(=O)Nc1cccc(Nc2ccnc(N)n2)c1 | –
58 | 37 ± 1 | – | Nc1nccc(Nc2ccc3[nH]ccc3c2)n1 | –
59 | – | 13 ± 6.81 | COc1cccc(CC(=O)Nc2cccc3c2ccn3-c2ccnc(N)n2)c1 | inhibition at 100 µM [1]: 62%
60 | 2.8 ± 2.3 | – | Nc1nccc(Nc2ccc(S(=O)(=O)Nc3ccccn3)cc2)n1 | –
61 | -0.5 ± 1 | – | Nc1nccc(Oc2ccccc2)n1 | –
62 | -5 ± 2 | – | Nc1nccc(-n2ccc3ccc(OCc4ccccc4)cc32)n1 | –
63 | – | 5.71 ± 1.44 | Nc1nccc(Nc2cccc(Cl)c2)n1 | inhibition at 100 µM [1]: 89%
64 | 2.1 ± 1.9 | – | Nc1nccc(Nc2ccc(S(=O)(=O)NC(=O)c3ccccc3)cc2)n1 | –
65 | 17 ± 2 | – | Nc1nccc(-n2ccc3cc(C(=O)Nc4ccccc4)ccc32)n1 | –
66 | – | 9.76 ± 0.86 | CC[C@H](NC(=O)c1cccc2c1ccn2-c1ccnc(N)n1)c1ccccc1 | inhibition at 100 µM [1]: 88%
67 | 38 ± 1 | – | CS(=O)(=O)c1ccc(Nc2ccnc(N)n2)cc1 | –
68 | – | 7.3 ± 1.29 | COc1cccc(CNC(=O)c2cccc(Nc3ccnc(N)n3)c2)c1 | inhibition at 100 µM [1]: 97%
69 | 8 ± 3 | – | Nc1nccc(-n2ccc3cc(NC(=O)c4ccccc4)ccc32)n1 | –
70 | 23 ± 1 | – | Nc1nccc(Nc2ccc3cc[nH]c3c2)n1 | –
71 | 1.8 ± 0.8 | – | Nc1nccc(Nc2ccc(S(=O)(=O)Nc3ccnn3-c3ccccc3)cc2)n1 | –
72 | – | 15.4 ± 6.04 | COC[C@H](NC(=O)c1cccc2c1ccn2-c1ccnc(N)n1)c1ccccc1 | inhibition at 100 µM [1]: 91%
